Measurements reported in patent US9221809B2 (MERCK SHARP & DOHME CORP., priority 2011, dated 2015).
Where a name gives a salt, the structure may show the parent alone. Read-outs that look alike come from different tables or passages of the source. Blank lines part the entries; values can stand above or below the compound they belong to.

Biological target: IRAK4 (Homo sapiens (Human), UniProt Q9NWZ3)
Experiment: IRAK4 kinase activity, IMAP fluorescence polarization assay
Type: biochemical
Settings: 100 μM ATP
Experimental: The kinase activity of IRAK4 is determined by its ability to catalyze the phosphorylation of a fluorescent polypeptide substrate. The extent of phosphorylation is measured using IMAP technology (Molecular Devices) where the phosphorylated fluorescent substrate binds to the large M(III)-based nanoparticles which reduces the rotational speed of the substrate and thus increases its fluorescent polarization (FP).
Assay Procedure: A 20 μl reaction mixture contains 10 mM TriHCl, pH 7.2, 0.5 nM GST tagged IRAK4 (SignalChem), 100 nM fluorescent peptide substrate (RP7030, Molecular Devices), 100 μM ATP, 1 mM DTT, 1 mM MgCl2, and 0.01% Tween 20. The reaction is initiated by the addition of ATP. After incubation for 30 minutes at 25° C., 60 μl of Progressive IMAP Reagent (Molecular Devices) is added to stop the reaction. Change in RP7030's FP is determined by a FP reader (Analyst HT, LJL BioSystems)

[1] = 0.5 nM GST tagged IRAK4, read-out: IRAK4 IC50
[2] = unit inferred, read-out: IRAK4 IC50

Chain of IRAK4 (Q9NWZ3 whole entry): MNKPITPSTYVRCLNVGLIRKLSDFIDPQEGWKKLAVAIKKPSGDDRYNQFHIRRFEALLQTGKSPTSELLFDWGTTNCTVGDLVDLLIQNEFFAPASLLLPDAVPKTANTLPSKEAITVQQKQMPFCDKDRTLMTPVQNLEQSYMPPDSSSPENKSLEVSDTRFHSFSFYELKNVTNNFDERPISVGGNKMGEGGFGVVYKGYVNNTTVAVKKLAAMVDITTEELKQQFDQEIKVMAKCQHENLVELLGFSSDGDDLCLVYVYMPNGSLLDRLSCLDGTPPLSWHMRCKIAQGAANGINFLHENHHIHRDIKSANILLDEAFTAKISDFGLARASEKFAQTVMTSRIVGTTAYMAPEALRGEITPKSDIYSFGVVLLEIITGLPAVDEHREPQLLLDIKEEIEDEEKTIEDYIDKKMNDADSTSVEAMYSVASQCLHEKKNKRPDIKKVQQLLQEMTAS

- IC50 (read-out: IC50): 450 nM
SMILES: O=c1[nH]c(NCCO)nc(N[C@@H]2CCCNC2)c1-c1nc2ccccc2s1 [Example 311, 5-(1,3-benzothiazol-2-yl)-2-[(2-hydroxyethyl)amino]-6-[[(3R)-piperidin-3-yl]amino]-3,4-dihydropyrimidin-4-one; trifluoroacetic acid]

- IC50 [1]: 4500 nM
SMILES: O=c1[nH]c(N2CCOCC2)nc(N[C@@H]2CCCNC2)c1-c1nc2cccc(C3CC3)c2s1 [Example 344, 5-(7-cyclopropyl-1,3-benzothiazol-2-yl)-2-(morpholin-4-yl)-6-[[(3R)-piperidin-3-yl]amino]-3,4-dihydropyrimidin-4-one trifluoroacetic acid]

- IC50 (read-out: IC50): 191 nM
SMILES: O=c1[nH]c(N2CCOCC2)nc(N[C@@H]2C[C@@H]3CN[C@H]2C3)c1-c1nc2ccccc2s1 [Example 211, 6-((1S,4R,6R)-2-azabicyclo[2.2.1]heptan-6-ylamino)-5-(benzo[d]thiazol-2-yl)-2-morpholinopyrimidin-4(3H)-one]

- IC50 (read-out: IRAK4 IC50): 99 nM
SMILES: O=c1[nH]c(N2CCOCC2)nc(N[C@@H]2CCCNC2)c1-c1nc(-c2cc(F)cc(F)c2)cs1 [Example 203]

- IC50 (read-out: IC50): 7 nM
SMILES: O=c1[nH]c(N2CCOCC2)nc(N[C@@H]2CCCNC2)c1-c1csc(-c2ccccc2)n1 [Example 218, (R)-2-morpholino-5-(2-phenylthiazol-4-yl)-6-(piperidin-3-ylamino)pyrimidin-4(3H)-one]

- IC50 (read-out: IC50): 47 nM
SMILES: O=c1[nH]c(N2CCC3(CCN(c4ccc(Cl)cc4)C3)C2)nc(N[C@@H]2CCCNC2)c1-c1nc2ccccc2s1 (stereo partly drawn) [Example 331, 5-(1,3-benzothiazol-2-yl)-2-[7-(4-chlorophenyl)-2,7-diazaspiro[4.4]nonan-2-yl]-6-[[(3R)-piperidin-3-yl]amino]-3,4-dihydropyrimidin-4-one trifluoroacetic acid]

- IC50 [2]: 6.2 nM
SMILES: O=c1[nH]c(N2CCC(c3cncnc3)CC2)nc(N[C@@H]2C[C@H](CO)[C@@H](O)[C@H]2O)c1-c1nc2ccccc2s1 [Example 64, 5-(benzo[d]thiazol-2-yl)-6-((1R,2S,3R,4R)-2,3-dihydroxy-4-(hydroxymethyl)cyclopentylamino)-2-(4-(pyrimidin-5-yl)piperidin-1-yl)pyrimidin-4(3H)-one]

- IC50 [1]: 180 nM
SMILES: O=c1[nH]c(N2CCOCC2)nc(N[C@@H]2CCCNC2)c1-c1nc2cccc(Cl)c2s1 [Example 339, (R)-5-(7-chlorobenzo[d]thiazol-2-yl)-2-morpholino-6-(piperidin-3-ylamino)pyrimidin-4(3H)-one]

- IC50 [1]: 19 nM
SMILES: O=c1[nH]c(N2CCOCC2)nc(N[C@@H]2CCCNC2)c1-c1nc2cc(Br)ccc2s1 [Example 345, 5-(5-bromo-1,3-benzothiazol-2-yl)-2-(morpholin-4-yl)-6-[[(3R)-piperidin-3-yl]amino]-3,4-dihydropyrimidin-4-one]

- IC50 (read-out: IRAK4 IC50): 35 nM
SMILES: CO[C@H]1CCN(c2nc(N[C@@H]3CCCNC3)c(-c3ccc4ccccc4n3)c(=O)[nH]2)C1 [Example 178, 2-((S)-3-methoxypyrrolidin-1-yl)-6-((R)-piperidin-3-ylamino)-5-(quinolin-2-yl)pyrimidin-4(3H)-one]

- IC50 (read-out: IC50): 63 nM
SMILES: COC1CCN(c2nc(N[C@@H]3CCCNC3)c(-c3nc4ccccc4s3)c(=O)[nH]2)CC1 [Example 293, (R)-5-(benzo[d]thiazol-2-yl)-2-(4-methoxypiperidin-1-yl)-6-(piperidin-3-ylamino)pyrimidin-4(3H)-one]

- IC50 (read-out: IRAK4 IC50): 153 nM
SMILES: O=c1[nH]c(N2CCOCC2)nc(N[C@@H]2CCCNC2)c1-c1nc(-c2ccc(Cl)cc2)cs1 [Example 202]

- IC50 (read-out: IRAK4 IC50): 40 nM
SMILES: O=c1[nH]c(N2CCOCC2)nc(N[C@@H]2CCCNC2)c1-c1nc(-c2cccc(F)c2)cs1 [Example 204]

- IC50 (read-out: IRAK4 IC50): 62 nM
SMILES: CN(C)[C@@H]1CCN(c2nc(N[C@@H]3CCCNC3)c(-c3ccc4ccccc4n3)c(=O)[nH]2)C1 [Example 164, 2-((R)-3-(dimethylamino)pyrrolidin-1-yl)-6-((R)-piperidin-3-ylamino)-5-(quinolin-2-yl)pyrimidin-4(3H)-one]

- IC50 (read-out: IRAK4 IC50): 3460 nM
SMILES: O=c1[nH]c(N2CCOCC2)nc(N[C@@H]2CCCNC2)c1-c1cncc(-n2cccc2)n1 [Example 198]

- IC50 (read-out: IC50): 660 nM
SMILES: CC(C)N1CCC(c2nc(N[C@@H]3CCCNC3)c(-c3nc4ccccc4s3)c(=O)[nH]2)CC1 [Example 228, (R)-5-(1,3-benzothiazol-2-yl)-6-[[(3R)-piperidin-3-yl]amino]-2-[1-(propan-2-yl)piperidin-4-yl]-3,4-dihydro-pyrimidin-4-one]

- IC50 (read-out: IRAK4 IC50): 66 nM
SMILES: Cc1cc(C2CCN(c3nc(N[C@@H]4CCCNC4)c(-c4ccc5ccccc5n4)c(=O)[nH]3)CC2)[nH]n1 [Example 192, (R)-2-(4-(3-methyl-1H-pyrazol-5-yl)piperidin-1-yl)-6-(piperidin-3-ylamino)-5-(quinolin-2-yl)pyrimidin-4(3H)-one]

SMILES: Cc1cccc2nc(-c3c(N[C@@H]4CCCNC4)nc(N4CCOCC4)[nH]c3=O)sc12 [Example 340, (R)-5-(7-methylbenzo[d]thiazol-2-yl)-2-morpholino-6-(piperidin-3-ylamino)pyrimidin-4(3H)-one]
- IC50 [1]: 580 nM

- IC50 (read-out: IC50): 180 nM
SMILES: O=c1[nH]c(C2CCN(C3CCOC3)CC2)nc(N[C@@H]2CCCNC2)c1-c1nc2ccccc2s1 (stereo partly drawn) [Example 233, 5-(1,3-benzothiazol-2-yl)-2-[1-(oxolan-3-yl)piperidin-4-yl]-6-[[(3R)-piperidin-3-yl]amino]pyrimidin-4-ol]

- IC50 [1]: 36 nM
SMILES: O=c1[nH]c(N2CCOCC2)nc(N[C@@H]2CCNC2)c1-c1nc2ccccc2s1 [Example 87, (R)-5-(Benzo[d]thiazol-2-yl)-2-morpholino-6-(pyrrolidin-3-ylamino)pyrimidin-4(3H)-one.HCl]

- IC50 (read-out: IC50): 69 nM
SMILES: CC1CCN(c2nc(N[C@@H]3CCCNC3)c(-c3nc4ccccc4s3)c(=O)[nH]2)CC1 [Example 297, 5-(1,3-benzothiazol-2-yl)-2-(4-methylpiperidin-1-yl)-6-[[(3R)-piperidin-3-yl]amino]-3,4-dihydropyrimidin-4-one]

- IC50 [1]: 30 nM
SMILES: CN1CCN(c2nc(N[C@@H]3CCCNC3)c(-c3nc4c(C5CC5)nccc4s3)c(=O)[nH]2)CC1 [Example 120, (R)-5-(4-cyclopropylthiazolo[4,5-c]pyridin-2-yl)-2-(4-methylpiperazin-1-yl)-6-(piperidin-3-ylamino)pyrimidin-4(3H)-one.HCl]

- IC50 (read-out: IC50): 43 nM
SMILES: O=c1[nH]c(N2CC3CCC(C2)O3)nc(N[C@@H]2CCCNC2)c1-c1nc2ccccc2s1 [Example 300, 5-(1,3-benzothiazol-2-yl)-2-[8-oxa-3-azabicyclo[3.2.1]octan-3-yl]-6-[[(3R)-piperidin-3-yl]amino]-3,4-dihydropyrimidin-4-one; trifluoroacetic acid]

- IC50 (read-out: IRAK4 IC50): 201 nM
SMILES: O=c1[nH]c(N2CCOC(C(F)(F)F)C2)nc(N[C@@H]2CCCNC2)c1-c1nc2ccccc2s1 (stereo partly drawn) [Example 130, 5-(benzo[d]thiazol-2-yl)-6-((R)-piperidin-3-ylamino)-2-(2-(trifluoromethyl)morpholino)pyrimidin-4(3H)-one]

- IC50 (read-out: IC50): 110 nM
SMILES: O=c1[nH]c(N2CCOCC2)nc(NC(CO)CO)c1-c1nc2ccccc2s1 [Example 270, 5-(benzo[d]thiazol-2-yl)-6-(1,3-dihydroxy-propan-2-ylamino)-2-morpholinopyrimidin-4(3H)-one]

- IC50 [1]: 847 nM
SMILES: C[C@H]1CC[C@@H](Nc2nc(N3CCOCC3)[nH]c(=O)c2-c2nc3ccccc3s2)CN1 (racemic) [Example 123, 5-(benzo[d]thiazol-2-yl)-6((6-methylpiperidin-3-yl)amino)-2-morpholinopyrimidin-4(3H)-one.HCl]

- IC50 (read-out: IC50): 250 nM
SMILES: CN(c1nc(N[C@@H]2CCCNC2)c(-c2nc3ccccc3s2)c(=O)[nH]1)[C@H](CO)c1ccccc1 [Example 310, 5-(1,3-benzothiazol-2-yl)-2-[[(1S)-2-hydroxy-1-phenylethyl](methyl)amino]-6-[[(3R)-piperidin-3-yl]amino]-3,4-dihydropyrimidin-4-one; trifluoroacetic acid]

- IC50 (read-out: IRAK4 IC50): 17 nM
SMILES: O=c1[nH]c(N2CCN(c3ncc(C(F)(F)F)cc3Cl)CC2)nc(N[C@@H]2CCCNC2)c1-c1nc2ccccc2s1 [Example 133, (R)-5-(benzo[d]thiazol-2-yl)-2-(4-(3-chloro-5-(trifluoromethyl)pyridin-2-yl)piperazin-1-yl)-6-(piperidin-3-ylamino)pyrimidin-4(3H)-one]

- IC50 (read-out: IC50): 2800 nM
SMILES: O=c1[nH]c(N2CCOCC2)nc(NCCN2CCCCC2)c1-c1ccc2ccccc2n1 [Example 278, 2-(morpholin-4-yl)-6-[[2-(piperidin-1-yl)ethyl]amino]-5-(quinolin-2-yl)-3,4-dihydropyrimidin-4-one]

- IC50 [2]: 19 nM
SMILES: O=c1[nH]c(N2CCC(c3ccncc3)CC2)nc(N[C@@H]2C[C@H](CO)[C@@H](O)[C@H]2O)c1-c1nc2ccccc2s1 [Example 72, 5-(benzo[d]thiazol-2-yl)-6-((1R,2S,3R,4R)-2,3-dihydroxy-4-(hydroxymethyl)cyclopentylamino)-2-(4-(pyridin-4-yl)piperidin-1-yl)pyrimidin-4(3H)-one]

- IC50 (read-out: IC50): 440 nM
SMILES: O=c1[nH]c(C2CCN(C3CCOCC3)CC2)nc(N[C@@H]2CCCNC2)c1-c1nc2ccccc2s1 [Example 234, (R)-5-(benzo[d]thiazol-2-yl)-6-(piperidin-3-ylamino)-2-(1-(tetrahydro-2H-pyran-4-yl)piperidin-4-yl)pyrimidin-4(3H)-one]

- IC50 [1]: 258 nM
SMILES: NC1CCCC(Nc2nc(N3CCOCC3)[nH]c(=O)c2-c2nc3ccccc3s2)C1 (centres unmarked) [Example 90, 6-(3-Aminocyclohexylamino)-5-(benzo[d]thiazol-2-yl)-2-morpholinopyrimidin-4(3H)-one.HCl]
